From patent publication US10081632B2, “Substituted tetrahydropyrido[3′,2′:4,5]pyrrolo[1,2-α]pyrazine-2-carboxamides as RSK inhibitors” (Phoenix Molecular Designs, priority 2016, dated 2018) come the findings set out here.

Each structure is given as a SMILES string.

Data set [1] is described as follows: Solubility assessment, 20 mg/ml solution. Type of data set: physicochemical. The method in brief:
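Compounds from 100 mM DMSO stocks diluted to 20 mg/ml in DMEM with FBS and penicillin/streptomycin, vortexed and checked visually for precipitate. One compound instead diluted to 20 mg/ml in phosphate-buffered saline, solution pH 2.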

The test system of the next data set is CD34+ cells. Briefly: Colony forming unit hematopoietic stem cell assay. It is filed as cell-based, human.

The IC50 is the concentration at which inhibition is half-maximal.

In the case of `C[C@@H]1CNC(=O)c2cc3ccc(C(=O)Nc4cnn(Cc5ccc(N)cc5)c4)nc3n21` [Compound 18, (R)—N-(1-(4-aminobenzyl)-1H-pyrazol-4-yl)-9-methyl-6-oxo-6,7,8,9-tetrahydropyrido[3′,2′:4,5]pyrrolo[1,2-a]pyrazine-2-carboxamide], the “Solubility, 20 mg/ml Solution” value in data set [1] (100 mM in DMSO diluted in DMEM growth media to 20 mg/ml) is “Soluble”. In addition, the “pH of 20 mg/ml solution” value in data set [1] (DMSO stock diluted in DMEM, pH test strips) is given as 9. In addition, in the data set on CD34+ cells (Homo sapiens, Hematopoietic stem cell, CD34+ cells from peripheral blood, read-out: CD34+ (PB) IC50), the IC50 was 16.3 µM. For the same compound, the “Therapeutic Window” value in the data set on CD34+ cells (ratio IC50 against CD34+ cells and MDA-MB-231 cells (SA)) was determined as 163X.
